Laboratory results from patent publication US20240067617A1 (Albireo AB, priority 2022, published 2024).

Columns and labels:
hIBAT = target: T1, hIBAT (Homo sapiens, UniProt Q12908); assay: IBAT (h/m) assay: 3H-taurocholic acid uptake in human IBAT-overexpressing cells; format: cell-based; conditions: 0.25 μM 3H-taurocholic acid + 5 μM cold taurocholic acid, 20 minutes at 37° C., highest test concentration 10 μM
T1 construct: expressed in transfected cells; kept under Puromycin selection
T1 sequence (Q12908 1-348): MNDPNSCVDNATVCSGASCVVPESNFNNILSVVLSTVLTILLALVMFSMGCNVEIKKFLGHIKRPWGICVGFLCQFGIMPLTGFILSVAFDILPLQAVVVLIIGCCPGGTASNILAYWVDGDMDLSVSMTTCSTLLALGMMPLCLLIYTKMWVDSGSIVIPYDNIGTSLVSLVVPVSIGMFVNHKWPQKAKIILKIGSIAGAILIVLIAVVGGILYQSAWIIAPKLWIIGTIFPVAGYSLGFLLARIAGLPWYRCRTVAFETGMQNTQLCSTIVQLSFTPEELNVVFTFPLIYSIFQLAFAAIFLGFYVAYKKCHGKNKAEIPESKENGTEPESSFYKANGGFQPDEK
Procedure: IBAT (h/m) Assay Protocol
10,000 cells (Human or Mouse IBAT-overexpressing cells) were seeded in 96-wells plate (Corning CLS3809) in 200 μL MEM-alpha medium (Gibco 12571-063) supplemented with 10% FBS (Gibco 10438026) containing Puromycin (Gibco A1113803) (10 μg/mL) and incubated at 37° C. in 5% CO2 for 48 hours. After incubation, media was decanted from the wells and cells were washed two times with 300 μL of basal MEM-alpha medium (FBS-free). After decanting basal MEM-alpha medium each time, plates were tapped against paper towel to ensure maximum removal of residual media. Test inhibitor dilutions (highest test concentration being 10 μM, 3-fold serial dilution, 10 points) prepared in DMSO (Sigma D2650) were added in incubation mix (maintaining 0.2% final DMSO concentration) containing 0.25 μM 3H-taurocholic acid (ARC ART-1368) and 5 μM of cold taurocholic acid (Sigma T4009). 50 μL of incubation mix containing test inhibitors was then added to the wells (in duplicate) and the plates were incubated for 20 minutes in a CO2 incubator at 37° C. After incubation, the reaction was stopped by keeping the plates on ice water mix for 2-3 minutes and then the incubation mix was aspirated completely from the wells. The wells were washed two times with 250 μL of chilled unlabelled 1 mM taurocholic acid dissolved in HEPES (Gibco 15630080)-buffered (10 mM) HBSS (Gibco 14175079) (pH 7.4). The plates were tapped against a paper towel after every wash to ensure maximum removal of blocking buffer.
(§1) 100 μL of MicroScint-20 (PerkinElmer 6013621) was added to the wells and kept overnight at RT before reading the plates in TopCount NXT™ Microplate Scintillation and Luminescence Counter from PerkinElmer under 3H Test protocol (set at 120 seconds reading time per well).
(§2) Preparation of Test Compound Dilutions
(§3) All test compounds were provided in powder form at RT. 10 mM DMSO stocks of the test compounds were prepared, aliquoted and stored at −20° C. From the 10 mM DMSO stock of the compounds, a 3-fold serial dilution in DMSO was prepared to get a total of 10 dilutions of the test compounds. 0.5 μL of this dilution in DMSO was added to 250 μL of FBS-free basal media containing 3H-taurocholic acid and cold taurocholic acid to prepare the incubation mixture.

hLBAT = target: T2, hLBAT (Homo sapiens, UniProt Q14973); assay: LBAT (h/m) assay: 3H-taurocholic acid uptake in human LBAT-overexpressing cells; format: cell-based; conditions: 0.3 μM 3H-taurocholic acid + 7.5 μM cold taurocholic acid, 20 minutes at 37° C.
T2 construct: expressed in transfected cells; kept under Geneticin selection
T2 sequence (Q14973 1-349): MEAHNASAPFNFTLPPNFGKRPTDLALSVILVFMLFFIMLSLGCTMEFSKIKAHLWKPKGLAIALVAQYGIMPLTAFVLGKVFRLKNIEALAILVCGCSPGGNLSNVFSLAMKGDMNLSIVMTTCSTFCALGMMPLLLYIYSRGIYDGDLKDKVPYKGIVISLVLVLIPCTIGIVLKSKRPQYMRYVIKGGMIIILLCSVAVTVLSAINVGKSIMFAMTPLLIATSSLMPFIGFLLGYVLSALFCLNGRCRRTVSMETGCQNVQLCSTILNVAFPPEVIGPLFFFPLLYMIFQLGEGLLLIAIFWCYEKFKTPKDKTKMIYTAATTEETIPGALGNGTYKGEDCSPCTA
Procedure: LBAT (h/m) Assay Protocol
20,000 cells (Human or Mouse LBAT-overexpressing cells) were seeded in 96-wells plate (Corning CLS3809) in 100 μL MEM-alpha medium (Gibco 12571-063) supplemented with 10% FBS (Gibco 10438026) containing Geneticin (Gibco 10131-027) (1 mg/mL) and incubated at 37° C. in 5% CO2 for 24 hours. After incubation, media was decanted from the wells and cells were washed two times with 300 μL of basal MEM-alpha medium (FBS-free). After decanting basal MEM-alpha medium each time, plates were tapped against paper towel to ensure maximum removal of residual media. For human LBAT, incubation mix was prepared by adding test inhibitor dilutions (3-fold serial dilution in DMSO (Sigma D2650), 10 points) in MEM-alpha (without FBS) containing 0.3 μM 3H-taurocholic acid (ARC ART-1368) and 7.5 μM cold taurocholic acid (Sigma T4009) (maintaining 0.2% final DMSO concentration). For mouse LBAT, incubation mix was prepared by adding test inhibitor dilutions (3-fold serial dilution in DMSO, 10 points) in MEM-alpha (without FBS) containing 0.3 μM 3H-taurocholic acid and 25 μM cold taurocholic acid maintaining 0.2% final DMSO concentration). 50 μL of incubation mix containing test inhibitors was then added to the wells (in duplicate) and the plates were incubated for 20 minutes in a CO2 incubator at 37° C. After incubation, the reaction was stopped by keeping the plates on ice water mix for 2-3 minutes and then the incubation mix was aspirated completely from the wells. The wells were washed two times with 250 μL of chilled unlabelled 1 mM taurocholic acid dissolved in HEPES (Gibco 15630080)-buffered (10 mM) HBSS (Gibco 14175079) (pH 7.4). The plates were tapped against a paper towel after every wash to ensure maximum removal of blocking buffer.
as §1, with “well, with normal plate orientation).” for “well).”
as §2, §3

Row | IC50 (hIBAT) | IC50 (hLBAT) | SMILES
1 | 2.75 µM | 0.155 µM | CCCCC1CN(c2ccccc2)c2cc(OC)c(CSCC(=O)O)cc2S(=O)(=O)N1C (single isomer, unassigned) [36, enantiomer 2]
2 | > 10 µM | 1.13 µM | CCCCC1CN(c2ccccc2)c2cc(OC)c(CSC(C)(C)C(=O)O)cc2S(=O)(=O)N1C (single isomer, unassigned) [38, enantiomer 1]
3 | 1.6 µM | 0.0066 µM | CCCCC1CN(c2ccccc2)c2cc(OC)c(CSC(C)(C)C(=O)O)cc2S(=O)(=O)N1C (single isomer, unassigned) [38, enantiomer 2]
4 | 0.0014 µM | > 10 µM | CCCCC1(CC)CN(c2ccc(F)cc2)c2cc(OC)c(CSCC(=O)O)cc2S(=O)(=O)C1 (single isomer, unassigned) [40, enantiomer 1]
5 | 0.036 µM | > 10 µM | CCCCC1(CC)CN(c2ccc(F)cc2)c2cc(OC)c(CSCC(=O)O)cc2S(=O)(=O)C1 (single isomer, unassigned) [40, enantiomer 2]
6 | 0.704 µM | 0.223 µM | CCCCC1(C)CN(c2ccccc2)c2cc(OC)c(CSC(C)(C)C(=O)O)cc2S(=O)(=O)C1 (single isomer, unassigned) [42, enantiomer 1]
7 | > 10 µM | 0.241 µM | CCCCC1(C)CN(c2ccccc2)c2cc(OC)c(CSC(C)(C)C(=O)O)cc2S(=O)(=O)C1 (single isomer, unassigned) [42, enantiomer 2]
8 | 0.028 µM | > 1 µM | CCCCC1(CC)CN(c2ccccc2)c2cc(OC)c(CSCC(=O)O)cc2S(=O)(=O)N1 (single isomer, unassigned) [45, enantiomer 1]
9 | 0.231 µM | > 1 µM | CCCCC1(CC)CN(c2ccccc2)c2cc(S(C)(=O)=O)c(CSCC(=O)O)cc2S(=O)(=O)N1 (single isomer, unassigned) [48, enantiomer 1]
10 | 0.0058 µM | > 1 µM | CCCCC1(CC)CN(c2ccccc2)c2cc(S(C)(=O)=O)c(CSCC(=O)O)cc2S(=O)(=O)N1 (single isomer, unassigned) [48, enantiomer 2]
11 | 0.0017 µM | 3.37 µM | CCCCC1(CCCC)CN(c2ccccc2)c2cc(SC)c(CSCC(=O)O)cc2S(=O)(=O)C1 [Example 3, 2-(((3,3-dibutyl-7-(methylthio)-1,1-dioxido-5-phenyl-2,3,4,5-tetrahydro-1,5-benzothiazepin-8-yl)methyl)thio)acetic acid]
12 | 0.0008 µM | > 3.33 µM | CCCCC1(CCCC)CN(c2ccccc2)c2cc(SC)c(CSCC(=O)O)cc2S(=O)(=O)N1 [Example 8, 2-(((3,3-dibutyl-7-(methylthio)-1,1-dioxido-5-phenyl-2,3,4,5-tetrahydro-1,2,5-benzothiadiazepin-8-yl)methyl)thio)acetic acid]
13 | 0.088 µM | 0.216 µM | CCCCC1(CCCC)CN(c2ccccc2)c2cc(SC)c(CSC(C)(C)C(=O)O)cc2S(=O)(=O)C1 [Example 17, 2-(((3,3-Dibutyl-7-(methylthio)-1,1-dioxido-5-phenyl-2,3,4,5-tetrahydro-1,5-benzothiazepin-8-yl)methyl)thio)-2-methylpropanoic acid]
14 | 0.522 µM | 2.51 µM | CCCCC1(CC)CN(c2ccccc2)c2cc(SC)c(CSCC(=O)O)cc2S(=O)(=O)N1C (stereo not drawn) [Example 20, 2-(((3-Butyl-3-ethyl-2-methyl-7-(methylthio)-1,1-dioxido-5-phenyl-2,3,4,5-tetrahydro-1,2,5-benzothiadiazepin-8-yl)methyl)thio)acetic acid]
15 | 0.9 µM | > 3.33 µM | CCCCC1(CCCC)CN(c2ccccc2)c2cc(SC)c(CSCC(=O)O)cc2S(=O)(=O)N1C [Example 22, 2-(((3,3-dibutyl-2-methyl-7-(methylthio)-1,1-dioxido-5-phenyl-2,3,4,5-tetrahydro-1,2,5-benzothiadiazepin-8-yl)methyl)thio)acetic acid]
16 | > 3.33 µM | 0.145 µM | CCCCC1(CCCC)CN(c2ccccc2)c2cc(SC)c(CSC(C)(C)C(=O)O)cc2S(=O)(=O)N1C [Example 23, 2-(((3,3-dibutyl-2-methyl-7-(methylthio)-1,1-dioxido-5-phenyl-2,3,4,5-tetrahydro-1,2,5-benzothiadiazepin-8-yl)methyl)thio)-2-methylpropanoic acid]
17 | > 3.33 µM | 0.085 µM | CCCCC1(CC)CN(c2ccccc2)c2cc(SC)c(CSC(C)(C)C(=O)O)cc2S(=O)(=O)N1C (stereo not drawn) [Example 24]
18 | 0.0013 µM | > 3.33 µM | CCCCC1(CCCC)CN(c2ccccc2)c2cc(OC)c(CSCC(=O)O)cc2S(=O)(=O)C1 [Example 31, 2-(((3,3-dibutyl-7-methoxy-1,1-dioxido-5-phenyl-2,3,4,5-tetrahydro-1,5-benzothiazepin-8-yl)methyl)thio)acetic acid]
19 | 0.0006 µM | > 3.33 µM | CCCCC1(CCCC)CN(c2ccc(F)cc2)c2cc(OC)c(CSCC(=O)O)cc2S(=O)(=O)C1 [Example 32, 2-(((3,3-dibutyl-5-(4-fluorophenyl)-7-methoxy-1,1-dioxido-2,3,4,5-tetrahydro-1,5-benzothiazepin-8-yl)methyl)thio)acetic acid]
20 | 0.861 µM | 0.251 µM | CCCCC1(CCCC)CN(c2ccccc2)c2cc(OC)c(CSC(C)(C)C(=O)O)cc2S(=O)(=O)C1 [Example 43, 2-(((3,3-dibutyl-7-methoxy-1,1-dioxido-5-phenyl-2,3,4,5-tetrahydro-1,5-benzothiazepin-8-yl)methyl)thio)-2-methylpropanoic acid]
21 | 0.0048 µM | > 1 µM | CCCCC1(CC)CN(c2ccccc2)c2cc(N(C)C)c(CSCC(=O)O)cc2S(=O)(=O)N1 (stereo not drawn) [Example 46, 2-(((3-butyl-7-(dimethylamino)-3-ethyl-1,1-dioxido-5-phenyl-2,3,4,5-tetrahydro-1,2,5-benzothiadiazepin-8-yl)methyl)thio)acetic acid]
